The values that follow come from US7902200B2, “Chemical compounds” (AstraZeneca AB, priority 2006, dated 2011).

pEC50: −log10 of the molar value.

The pEC50 is −log10 of the EC50, conventionally taken in molar units.

One assay has as its target T1, recombinant human pancreatic GLK (Homo sapiens, UniProt P35557).
T1 construct: 6-His (N); made in house; host or cells: E. coli BL21
T1 sequence (P35557 1-465): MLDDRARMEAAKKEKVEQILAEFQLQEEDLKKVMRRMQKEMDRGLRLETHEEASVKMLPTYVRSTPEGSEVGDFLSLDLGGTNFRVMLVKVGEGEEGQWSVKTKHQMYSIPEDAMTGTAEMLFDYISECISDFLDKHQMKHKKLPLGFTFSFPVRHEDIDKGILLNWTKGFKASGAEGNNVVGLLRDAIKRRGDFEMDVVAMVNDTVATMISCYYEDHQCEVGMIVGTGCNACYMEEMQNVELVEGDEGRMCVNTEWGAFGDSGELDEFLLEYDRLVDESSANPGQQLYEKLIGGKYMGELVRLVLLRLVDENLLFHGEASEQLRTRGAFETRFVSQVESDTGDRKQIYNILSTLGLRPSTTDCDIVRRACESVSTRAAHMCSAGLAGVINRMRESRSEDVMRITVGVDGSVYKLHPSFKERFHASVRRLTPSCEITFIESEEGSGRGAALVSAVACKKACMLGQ
The experiment in a line: GKH4 variant of GLK enzymatic activity assay (automated end-point assay). It counts as biochemical. As to conditions: activation of GLK; 10 nmol/l GLK; end-point at 10 minutes; no GLKRP. On the procedure: (§1) Enzymatic activity of recombinant human pancreatic GLK may be measured by incubating GLK, ATP and glucose. The rate of product formation may be determined by coupling the assay to a G-6-P dehydrogenase, NADP/NADPH system and measuring the linear increase with time of optical density at 340 nm (Brocklehurst et al (Diabetes 2004, 53, 535-541). Activation of GLK by compounds can be assessed using this assay in the presence or absence of GLKRP as described in Brocklehurst et al (Diabetes 2004, 53, 535-541).
(§2) One or both of two variants of this assay, GKH1 and GKH4, were used to test the compounds of the invention. The GKH1 assay is a manual, bench-top rate assay using 60 nmol/l of recombinant human pancreatic GLK. The GLK activity rate is measured over a 5 minute window using a Multiskan Ascent spectrophotometer. The GKH4 assay is an automated end-point assay using 10 nmol/l of recombinant human pancreatic GLK. The GLK activity is measured at 10 minutes after the initiation of the assay on a Perkin Elmer Envision spectrophotometer.
In the case of `CCN1CCC(Oc2cc(Oc3ccc(C(=O)N4CCC4)nc3)cc(C(=O)Nc3cnc(C)cn3)c2)C1=O` (racemic) [Example 10, 3-[6-(Azetidine-1-carbonyl)pyridin-3-yl]oxy-5-(1-ethyl-2-oxo-pyrrolidin-3-yl)oxy-N-(5-methylpyrazin-2-yl)benzamide], the pEC50 is 6.59.

For the compound `Cc1cnc(NC(=O)c2cc(Oc3ccc(C(=O)N4CCC4)nc3)cc(OC3CCN(C4CCC4)C3=O)c2)cn1` (racemic) [Example 17, 3-[6-(Azetidine-1-carbonyl)pyridin-3-yl]oxy-5-(1-cyclobutyl-2-oxo-pyrrolidin-3-yl)oxy-N-(5-methylpyrazin-2-yl)benzamide], the pEC50 was 6.22.

For `Cc1csc(NC(=O)c2cc(Oc3cnc(C(=O)N4CCC4)cn3)cc(O[C@H]3CCN(C)C3=O)c2)n1` [Example 3, 3-[5-(Azetidine-1-carbonyl)pyrazin-2-yl]oxy-5-[(3S)-1-methyl-2-oxo-pyrrolidin-3-yl]oxy-N-(4-methyl1,3-thiazol-2-yl)benzamide], the pEC50 is 6.54.

On to `Cc1csc(NC(=O)c2cc(Oc3cnc(C(=O)N4CCC4)cn3)cc(O[C@@H]3CCN(C)C3=O)c2)n1` [Example 4, 3-[5-(Azetidine-1-carbonyl)pyrazin-2-yl]oxy-5-[(3R)-1-methyl-2-oxo-pyrrolidin-3-yl]oxy-N-(4-methyl1,3-thiazol-2-yl)benzamide], for which the negative logarithm of the EC50 (pEC50) was 4.74.

In the case of `CN1CC[C@H](Oc2cc(Oc3ccc(C(=O)N4CCC4)cc3)cc(C(=O)Nc3cc[nH]n3)c2)C1=O` [Example 5, 3-[4-(Azetidine-1-carbonyl)phenoxy]-5-[(3S)-1-methyl-2-oxo-pyrrolidin-3-yl]oxy-N-(1H-pyrazol-3-yl)benzamide], the pEC50 was 6.82.

Turning to `Cc1cnc(NC(=O)c2cc(Oc3ncc(C(=O)N4CCC4)cc3Cl)cc(O[C@H]3CCN(C)C3=O)c2)cn1` [Example 6, 3-[5-(Azetidine-1-carbonyl)-3-chloro-pyridin-2-yl]oxy-5-[(3S)-1-methyl-2-oxo-pyrrolidin-3-yl]oxy-N-(5-methylpyrazin-2-yl)benzamide], the pEC50 is 6.72.

In the case of `Cc1cnc(NC(=O)c2cc(Oc3ccc(S(C)(=O)=O)cc3)cc(O[C@H]3CCN(C)C3=O)c2)cn1` [Example 7, 3-[(3S)-1-Methyl-2-oxo-pyrrolidin-3-yl]oxy-N-(5-methylpyrazin-2-yl)-5-(4-methylsulfonylphenoxy)benzamide], the pEC50 is 6.24.

Regarding `Cc1cnc(NC(=O)c2cc(Oc3ccc(C(=O)N4CCC4)cc3)cc(O[C@H]3CCN(C)C3=O)c2)cn1` [Example 8, 3-[4-(Azetidine-1-carbonyl)phenoxy]-5-[(3S)-1-methyl-2-oxo-pyrrolidin-3-yl]oxy-N-(5-methylpyrazin-2-yl)benzamide], the negative-log EC50 (pEC50) is 6.72.

Take `Cc1cnc(NC(=O)c2cc(Oc3ccc4c(c3)OCCCS4(=O)=O)cc(O[C@H]3CCN(C)C3=O)c2)cn1` [Example 9, 3-[(2,2-Dioxo-6-oxa-2-λ^6-thiabicyclo[5.4.0]undeca-7,9,11-trien-9-yl)oxy]-5-[(3S)-1-methyl-2-oxo-pyrrolidin-3-yl]oxy-N-(5-methylpyrazin-2-yl)benzamide]: the pEC50 was 6.92.

`Cc1cnc(NC(=O)c2cc(Oc3ccc4c(c3Cl)OCCN(C)C4=O)cc(O[C@H]3CCN(C)C3=O)c2)cn1` [Example 14, 3-[(11-Chloro-5-methyl-6-oxo-2-oxa-5-azabicyclo[5.4.0]undeca-8,10,12-trien-10-yl)oxy]-5-[(3S)-1-methyl-2-oxo-pyrrolidin-3-yl]oxy-N-(5-methylpyrazin-2-yl)benzamide]: the negative-log EC50 (pEC50) is 7.10.

Regarding `Cc1cnc(NC(=O)c2cc(Oc3ccc4c(c3)OCCN(C)C4=O)cc(O[C@H]3CCN(C)C3=O)c2)cn1` [Example 16, 3-[(5-Methyl-6-oxo-2-oxa-5-azabicyclo[5.4.0]undeca-8,10,12-trien-10-yl)oxy]-5-[(3S)-1-methyl-2-oxo-pyrrolidin-3-yl]oxy-N-(5-methylpyrazin-2-yl)benzamide], the pEC50 was 6.51.

With `Cc1cnc(NC(=O)c2cc(Oc3ccc(C(=O)N4CCC4)nc3)cc(O[C@H]3CCN(C4CC4)C3=O)c2)cn1` [Example 19, 3-[6-(Azetidine-1-carbonyl)pyridin-3-yl]oxy-5-[(3S)-1-cyclopropyl-2-oxo-pyrrolidin-3-yl]oxy-N-(5-methylpyrazin-2-yl)benzamide], the pEC50 was 6.23.

Turning to `Cc1cnc(NC(=O)c2cc(Oc3ccc(C(=O)N(C)C)cc3Cl)cc(O[C@H]3CCN(C)C3=O)c2)cn1` [Example 26, 3-[2-Chloro-4-(dimethylcarbamoyl)phenoxy]-5-[(3S)-1-methyl-2-oxo-pyrrolidin-3-yl]oxy-N-(5-methylpyrazin-2-yl)benzamide], the pEC50 was 6.41.

As to `Cc1cnc(NC(=O)c2cc(Oc3ccc4c(c3)OCCNS4(=O)=O)cc(O[C@H]3CCN(C)C3=O)c2)cn1` [Example 27, 3-[(6,6-dioxo-2-oxa-6-λ^6-thia-5-azabicyclo[5.4.0]undeca-8,10,12-trien-10-yl)oxy]-5-[(3S)-1-methyl-2-oxo-pyrrolidin-3-yl]oxy-N-(5-methylpyrazin-2-yl)benzamide], the pEC50 is 6.18.

With `Cc1cnc(NC(=O)c2cc(Oc3ccc(S(C)(=O)=O)nc3)cc(O[C@H]3CCN(C)C3=O)c2)cn1` [Example 28, 3-[(3S)-1-methyl-2-oxo-pyrrolidin-3-yl]oxy-N-(5-methylpyrazin-2-yl)-5-(6-methylsulfonylpyridin-3-yl)oxy-benzamide], the pEC50 was 6.24.

Consider `Cc1cnc(NC(=O)c2cc(Oc3ccc(C(=O)N(C)C)nc3)cc(O[C@H]3CCN(C)C3=O)c2)cn1` [Example 29, N,N-dimethyl-5-[3-[(3S)-1-methyl-2-oxo-pyrrolidin-3-yl]oxy-5-[(5-methylpyrazin-2-yl)carbamoyl]phenoxy]pyridine-2-carboxamide], for which the pEC50 was 7.00.

On to `CN1COc2cc(Oc3cc(O[C@H]4CCN(C)C4=O)cc(C(=O)Nc4cc[nH]n4)c3)ccc2C1=O` [Example 30, 3-[(9-methyl-10-oxo-7-oxa-9-azabicyclo[4.4.0]deca-2,4,11-trien-4-yl)oxy]-5-[(3S)-1-methyl-2-oxo-pyrrolidin-3-yl]oxy-N-(1H-pyrazol-3-yl)benzamide], for which the pEC50 is 7.22.

For `Cc1nsc(NC(=O)c2cc(Oc3cnc(C(=O)N(C)C)cn3)cc(O[C@H]3CCN(C)C3=O)c2)n1` [Example 31, N,N-dimethyl-5-[3-[(3S)-1-methyl-2-oxo-pyrrolidin-3-yl]oxy-5-[(3-methyl-1,2,4-thiadiazol-5-yl)carbamoyl]phenoxy]pyrazine-2-carboxamide], the pEC50 is 5.97.

With `Cc1csc(NC(=O)c2cc(Oc3cnc(C(=O)N(C)C)cn3)cc(O[C@H]3CCN(C)C3=O)c2)n1` [Example 32, N,N-Dimethyl-5-[3-[(3S)-1-methyl-2-oxo-pyrrolidin-3-yl]oxy-5-[(4-methyl-1,3-thiazol-2-yl)carbamoyl]phenoxy]pyrazine-2-carboxamide], the negative logarithm of the EC50 (pEC50) is 7.22.

Another assay deals with T1, recombinant human pancreatic GLK. The assay is described as follows: GKH1 variant of GLK enzymatic activity assay (manual bench-top rate assay). It counts as biochemical. Conditions: activation of GLK; 60 nmol/l GLK; rate over 5 minute window; no GLKRP. On the procedure: as §1, §2
On to `Cc1cnc(NC(=O)c2cc(Oc3ccc(C(=O)N4CCC4)nc3)cc(O[C@@H]3CCN(C)C3=O)c2)cn1` [Example 2, 3-[6-(Azetidine-1-carbonyl)pyridin-3-yl]oxy-5-[(3R)-1-methyl-2-oxo-pyrrolidin-3-yl]oxy-N-(5-methylpyrazin-2-yl)benzamide], for which the negative logarithm of the EC50 (pEC50) was 5.41.
